Reference: patent publication US8030321B2, “Benzofuro- and benzothienopyrimidine modulators of the histamine H4 receptor” (Janssen Pharmaceutica, NV, priority 2006, dated 2011)
Where a name gives a salt, the structure may show the parent alone.

target: T1, human histamine H4 receptor (Homo sapiens, UniProt Q9H3N8); experiment: Binding Assay on Recombinant Human Histamine H4 Receptor; details: not given
T1 construct: expressed in transfected cells; host or cells: SK-N-MC cells or COS7 cells, transiently transfected; cell membranes used
Protocol: Binding Assay on Recombinant Human Histamine H4 Receptor
SK-N-MC cells or COS7 cells were transiently transfected with pH4R and grown in 150 cm^2 tissue culture dishes. Cells were washed with saline solution, scraped with a cell scraper and collected by centrifugation (1000 rpm, 5 min). Cell membranes were prepared by homogenization of the cell pellet in 20 mM Tris-HCl with a polytron tissue homogenizer for 10 sec at high speed. Homogenate was centrifuged at 1000 rpm for 5 min at 4° C. […] The final pellet was resuspended in 50 mM Tris-HCl. Cell membranes were incubated with ^3H-histamine (5-70 nM) in the presence or absence of excess histamine (10,000 nM). […] Membranes were harvested by rapid filtration over Whatman GF/C filters and washed 4 times with ice-cold 50 mM Tris HCl. Filters were then dried, mixed with scintillant and counted for radioactivity. SK-N-MC or COS7 cells expressing human histamine H4 receptor were used to measure the affinity of binding of other compounds and their ability to displace ^3H-ligand binding by incubating the above-described reaction in the presence of various concentrations of inhibitor or compound to be tested.

Compound | Ki [nM]
Nc1nc(N2C[C@@H]3C[C@H]2CN3)c2sc3ccc(Cl)cc3c2n1 [Example 68, (S,S)-8-Chloro-4-(2,5-diaza-bicyclo[2.2.1]hept-2-yl)-benzo[4,5]thieno[3,2-d]pyrimidin-2-ylamine trifluoroacetic acid salt] | 840
Nc1nc(N2CCN3CCCC3C2)c2oc3ccc(Cl)cc3c2n1 (stereo not drawn) [Example 69, 8-Chloro-4-(hexahydro-pyrrolo[1,2-a]pyrazin-2-yl)-benzo[4,5]furo[3,2-d]pyrimidin-2-ylamine trifluoroacetic acid salt] | 15
Nc1nc(N2CC3CCNC3C2)c2oc3ccc(F)cc3c2n1 (stereo not drawn) [Example 71, 8-Fluoro-4-(hexahydro-pyrrolo[3,4-b]pyrrol-5-yl)-benzo[4,5]furo[3,2-d]pyrimidin-2-ylamine trifluoroacetic acid salt] | 7.8
Nc1nc(N2CC3CCNC3C2)c2oc3ccc(Cl)cc3c2n1 (stereo not drawn) [Example 80, 8-Chloro-4-(hexahydro-pyrrolo[3,4-b]pyrrol-5-yl)-benzo[4,5]furo[3,2-d]pyrimidin-2-ylamine trifluoroacetic acid salt] | 3.6
Nc1nc(N2C[C@H]3C[C@@H]2CN3)c2oc3ccc(Cl)cc3c2n1 [Example 81, (R,R)-8-Chloro-4-(2,5-diaza-bicyclo[2.2.1]hept-2-yl)-benzo[4,5]furo[3,2-d]pyrimidin-2-ylamine trifluoroacetic acid salt] | 100
Nc1nc(N2C[C@H]3CCCN[C@H]3C2)c2oc3ccc(Cl)cc3c2n1 [Example 82, (R,R)-8-Chloro-4-(octahydro-pyrrolo[3,4-b]pyridin-6-yl)-benzo[4,5]furo[3,2-d]pyrimidin-2-ylamine citrate salt] | 21
Nc1nc(N2C[C@@H]3CCCN[C@@H]3C2)c2oc3ccc(Cl)cc3c2n1 [Example 83, 8-Chloro-4-(octahydro-pyrrolo[3,4-b]pyridin-6-yl)-benzo[4,5]furo[3,2-d]pyrimidin-2-ylamine citrate salt] | 4.7
Nc1nc(N2CC3CCC(C2)N3)c2oc3ccc(Cl)cc3c2n1 [Example 97, 8-Chloro-4-(3,8-diaza-bicyclo[3.2.1]oct-3-yl)-benzo[4,5]furo[3,2-d]pyrimidin-2-ylamine trifluoroacetic acid salt] | 42

same assay, conditions: competition binding with 3H-histamine (5 nM), membranes of SK-N-MC or COS7 cells expressing human H4 receptor; Cheng-Prusoff, KD 5 nM; average of results obtained; read-out: Ki

Compound | Ki [nM]
CN[C@@H]1CCN(c2nc(N)nc3c2sc2ccc(F)cc23)C1 [Example 76, (R)-8-Fluoro-4-(3-methylamino-pyrrolidin-1-yl)-benzo[4,5]thieno[3,2-d]pyrimidin-2-ylamine trifluoroacetic acid salt] | 32
Nc1nc(N2C[C@@H]3C[C@H]2CN3)c2sc3cc(Br)ccc3c2n1 [Example 77, (S,S)-7-Bromo-4-(2,5-diaza-bicyclo[2.2.1]hept-2-yl)-benzo[4,5]thieno[3,2-d]pyrimidin-2-ylamine trifluoroacetic acid salt] | 3230
Nc1nc(N2CC3C(N)C3C2)c2oc3ccc(Cl)cc3c2n1 (stereo not drawn) [Example 78, 4-(6-Amino-3-aza-bicyclo[3.1.0]hex-3-yl)-8-chloro-benzo[4,5]furo[3,2-d]pyrimidin-2-ylamine trifluoroacetic acid salt] | 22
COc1cccc2oc3c(N4C[C@@H]5C[C@H]4CN5)nc(N)nc3c12 [Example 85, (S,S)-4-(2,5-Diaza-bicyclo[2.2.1]hept-2-yl)-9-methoxy-benzo[4,5]furo[3,2-d]pyrimidin-2-ylamine trifluoroacetic acid salt] | > 10000
COc1cccc2oc3c(N4CCC[C@H](N)C4)nc(N)nc3c12 [Example 87, (S)-4-(3-Amino-piperidin-1-yl)-9-methoxy-benzo[4,5]furo[3,2-d]pyrimidin-2-ylamine trifluoroacetic acid salt] | > 10000
COc1cccc2oc3c(N4CCN(C)CC4)nc(N)nc3c12 [Example 88, 9-Methoxy-4-(4-methyl-piperazin-1-yl)-benzo[4,5]furo[3,2-d]pyrimidin-2-ylamine trifluoroacetic acid salt] | 30
Nc1nc(N2C[C@@H]3C[C@H]2CN3)c2oc3ccc(Cl)c(Cl)c3c2n1 [Example 98, (S,S)-8,9-Dichloro-4-(2,5-diaza-bicyclo[2.2.1]hept-2-yl)-benzo[4,5]furo[3,2-d]pyrimidin-2-ylamine trifluoroacetic acid salt] | > 10000
CN[C@@H]1CCN(c2nc(N)nc3c2oc2ccc(Cl)c(Cl)c23)C1 [Example 99, (R)-8,9-Dichloro-4-(3-methylamino-pyrrolidin-1-yl)-benzo[4,5]furo[3,2-d]pyrimidin-2-ylamine trifluoroacetic acid salt] | 10

The remaining lines, values ahead:

Ki [nM] | Compound
1 | CN[C@@H]1CCN(c2nc(N)nc3c2sc2ccc(Cl)cc23)C1 [Example 66, (R)-8-Chloro-4-(3-methylamino-pyrrolidin-1-yl)-benzo[4,5]thieno[3,2-d]pyrimidin-2-ylamine trifluoroacetic acid salt]
14 | CN1CCN(c2nc(N)nc3c2sc2ccc(Cl)cc23)CC1 [Example 67, 8-Chloro-4-(4-methyl-piperazin-1-yl)-benzo[4,5]thieno[3,2-d]pyrimidin-2-ylamine trifluoroacetic acid salt]
18.9 | CN1CCN(c2nc(N)nc3c2sc2ccc(F)cc23)CC1 [Example 70, 8-Fluoro-4-(4-methyl-piperazin-1-yl)-benzo[4,5]thieno[3,2-d]pyrimidin-2-ylamine trifluoroacetic acid salt]
343 | CCN[C@H]1CCCN(c2nc(N)nc3c2oc2ccc(Cl)cc23)C1 [Example 72, (S)-8-Chloro-4-(3-ethylamino-piperidin-1-yl)-benzo[4,5]furo[3,2-d]pyrimidin-2-ylamine trifluoroacetic acid salt]
75 | CCN[C@@H]1CCN(c2nc(N)nc3c2oc2ccc(Cl)cc23)C1 [Example 73, (R)-8-Chloro-4-(3-ethylamino-pyrrolidin-1-yl)-benzo[4,5]furo[3,2-d]pyrimidin-2-ylamine trifluoroacetic acid salt]
216 | CN[C@H]1CCCN(c2nc(N)nc3c2oc2ccc(Cl)cc23)C1 [Example 74, (S)-8-Chloro-4-(3-methylamino-piperidin-1-yl)-benzo[4,5]furo[3,2-d]pyrimidin-2-ylamine citrate salt]
650 | CN(C)[C@H]1CCCN(c2nc(N)nc3c2oc2ccc(Cl)cc23)C1 [Example 75, (S)-8-Chloro-4-(3-dimethylamino-piperidin-1-yl)-benzo[4,5]furo[3,2-d]pyrimidin-2-ylamine trifluoroacetic acid salt]
> 10000 | NC[C@H]1CCCN1c1nc(N)nc2c1oc1ccc(Cl)cc12 [Example 79, (R)-4-(2-Aminomethyl-pyrrolidin-1-yl)-8-chloro-benzo[4,5]furo[3,2-d]pyrimidin-2-ylamine trifluoroacetic acid salt]
> 10000 | CN[C@@H]1CCN(c2nc(N)nc3c2oc2cccc(C(F)(F)F)c23)C1 [Example 84, (R)-4-(3-Methylamino-pyrrolidin-1-yl)-9-trifluoromethyl-benzo[4,5]furo[3,2-d]pyrimidin-2-ylamine citrate salt]
47 | COc1cccc2oc3c(N4CCNCC4)nc(N)nc3c12 [Example 86, 9-Methoxy-4-piperazin-1-yl-benzo[4,5]furo[3,2-d]pyrimidin-2-ylamine trifluoroacetic acid salt]
12 | COc1ccc2oc3c(N4CCN(C)CC4)nc(N)nc3c2c1 [Example 89, 8-Methoxy-4-(4-methyl-piperazin-1-yl)-benzo[4,5]furo[3,2-d]pyrimidin-2-ylamine trifluoroacetic acid salt]
120 | Nc1nc(N2CCNCC2)c2oc3cccc(C(F)(F)F)c3c2n1 [Example 90, 4-piperazin-1-yl-9-trifluoromethyl-benzo[4,5]furo[3,2-d]pyrimidin-2-ylamine citrate salt]
50 | CN1CCN(c2nc(N)nc3c2oc2cccc(C(F)(F)F)c23)CC1 [Example 91, 4-(4-Methyl-piperazin-1-yl)-9-trifluoromethyl-benzo[4,5]furo[3,2-d]pyrimidin-2-ylamine citrate salt]
> 10000 | Nc1nc(N2CCC[C@H](N)C2)c2oc3cccc(C(F)(F)F)c3c2n1 [Example 92, (S)-4-(3-Amino-piperidin-1-yl)-9-trifluoromethyl-benzo[4,5]furo[3,2-d]pyrimidin-2-ylamine citrate salt]
> 10000 | Nc1nc(N2CCC[C@H](N)C2)c2oc3ccc(Cl)c(Cl)c3c2n1 [Example 93, (S)-4-(3-Amino-piperidin-1-yl)-8,9-dichloro-benzo[4,5]furo[3,2-d]pyrimidin-2-ylamine trifluoroacetic acid salt]
880 | Nc1nc(N2C[C@@H]3C[C@H]2CN3)c2oc3cccc(C(F)(F)F)c3c2n1 [Example 94, (S,S)-4-(2,5-Diaza-bicyclo[2.2.1]hept-2-yl)-9-trifluoromethyl-benzo[4,5]furo[3,2-d]pyrimidin-2-ylamine citrate salt]
2.8 | CN(CCN)c1nc(N)nc2c1oc1ccc(Cl)cc12 [Example 96, N^4-(2-Amino-ethyl)-8-chloro-N^4-methyl-benzo[4,5]furo[3,2-d]pyrimidine-2,4-diamine trifluoroacetic acid salt]
